Starred links: 1 amine or outer side, 2 acyl side, 3 side chain; linkers in the order of their positions; H or OH if unused. Positions of bridges follow the written chain, without caps; N, C: chain ends. Non-standard residues stand in square brackets, D forms with d. Residues, ends and D or L forms follow the SMILES beside them. No end group written: not given here. *: point of attachment. Leu(3R-OH,Nα-propionyl) = CCC(=O)N[C@H](C(=O)*)[C@H](O)C(C)C; X1 = CC(C)[C@@H](O[*:3])[C@H](N[*:1])C(=O)[*:2]; NMeT = CN[C@H](C(=O)O)[C@@H](C)O; dPhLac = O=C(O)[C@H](O)Cc1ccccc1; NMeA = CN[C@@H](C)C(=O)O; NMeDha = C=C(NC)C(=O)O
Experiments:
AT1R [1] = molecular target: T1, AT1R (Homo sapiens, UniProt P30556); assay: PKN-based RhoA activation BRET assay (PKN-crib-RlucII/rGFP-CAAX) with AT1R; assay type: cell-based
T1 construct: expressed in transfected cells; host or cells: HEK293SL
T1 sequence (P30556 1-359): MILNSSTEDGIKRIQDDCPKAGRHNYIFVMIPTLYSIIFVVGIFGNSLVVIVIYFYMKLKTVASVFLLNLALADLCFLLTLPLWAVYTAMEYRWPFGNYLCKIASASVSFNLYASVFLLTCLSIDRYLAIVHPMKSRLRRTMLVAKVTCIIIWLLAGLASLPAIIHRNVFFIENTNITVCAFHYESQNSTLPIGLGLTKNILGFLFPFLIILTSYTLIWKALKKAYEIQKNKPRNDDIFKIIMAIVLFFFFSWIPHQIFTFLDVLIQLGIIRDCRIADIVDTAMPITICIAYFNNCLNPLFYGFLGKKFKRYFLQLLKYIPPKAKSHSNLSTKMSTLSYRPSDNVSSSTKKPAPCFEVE
Method: (§1) BRET measurements for FIGS. 1B to 9D, 25D to 25F. The following day of transfection, cells were detached and replated onto poly-ornithine coated white 96-well plate at a density of 25,000 cells per well. The next day, cells were washed once with pre-warmed Tyrode's buffer (140 mM NaCl, 2.7 mM KCl, 1 mM CaCl2, 12 mM NaHCO3, 5.6 mM D-glucose, 0.5 mM MgCl2, 0.37 mM NaH2PO4, 25 mM HEPES, pH 7.4), and then stimulated with either various concentrations of ligands in Tyrode's buffer for the indicated time, or single concentration of ligands for various times at 37° C. For recycling experiment, after stimulating the cells with the ligands for 30 min at 37° C., they were washed either three times with ice-cold Tyrode's buffer or once with Tyrode's buffer/three times with acid (50 mM sodium citrate, pH 4.0)/two times with Tyrode's buffer. All the washing steps were performed on ice. […] The cell-permeable substrate, coelenterazine 400a was added at a final concentration of 5 μM in Tyrode's buffer 3-4 min before BRET measurements. […] The BRET signal was determined by calculating the ratio of the light intensity emitted by the GFP10 or rGFP over the light intensity emitted by the RlucII. All the BRET measurements were performed in triplicate at 37° C.
PKN-based RhoA activation assay. For FIGS. 25B-D, HEK293SL cells were grown in DMEM supplemented with 6% fetal bovine serum (FBS) and 20 μg/ml gentamycin, at 37° C. Cells were seeded at a density of 7.5×10^5 cells per 100 mm dishes and were transiently transfected the next day with constructs encoding AT1R (3 μg) along with PKN-crib-RlucII (90 ng) and rGFP-CAAX (480 ng) using calcium phosphate method as described previously. After 24 h, cells were detached and seeded onto poly-ornithine-coated 96-well white plates at a density of 25 000 cells per well in media. The next day, cells were washed once with Tyrode's buffer and left in 80 μl of Tyrode's buffer at 37° C. When indicated, cells were treated with Ubo-Qic 100 nM for 30 min or C3 toxin for 3 μg/ml (in FIG. 25I), 4 hours at 37° C. Cell stimulation and BRET measurements were done at RT. BRET signals were monitored by addition of Coel-400a to a final concentration of 5 μM using a Synergy2 (BioTek®) microplate reader. […] For FIG. 25B, a transfection mix of 200 ng of TPαR, 20 ng PKN-RlucII, 600 ng CAAX-rGFP, complemented to 2 μg with ssDNA and PEI at a ratio of PEI:DNA of 3:1, is added to 3 ml of Hek293SL (350 000 cells/ml). Cells were seeded on poly-D-lysine pretreated plates. […] Cells were stimulated for 2 min with the indicated doses of U46619. […] For FIGS. 25I and J, a transfection mix of 200 ng of TPαR, 20 ng PKN-RlucII, 600 ng CAAX-rGFP, complemented to 2 μg with ssDNA and PEI at a ratio of PEI:DNA of 3:1, is added to 3 ml of Hek293SL (350,000 cells/ml). Cells were seeded on poly-D-lysine pretreated plates. 24 h post-transfection, the Rho inhibitor (CT04; Cytoskeleton, Inc) was added when indicated, overnight at final concentration 2 μg/ml. 48 h post-transfection, cells were washed and preincubated in Tyrode +1 mM CaCl2 at 37° C. for 60 min then treated, as indicated, with 100 nM of U46619 or 1 μg/ml of Rho activator II (CN03; Cytoskeleton, Inc) for 1 min at 37° C. […] BRET was measured at 37° C., using a Tristar Microplate Reader (Berthold Technologies).

AT1R [2] = molecular target: T2, AT1R (Homo sapiens, UniProt P30556); assay: AT1R trafficking to endosomes BRET (AT1R-RlucII/rGFP-endofinFYVE); assay type: cell-based; set-up: expressed in transfected cells; host or cells: HEK293SL (HEK293 for the screen)
T2 sequence (P30556 with tags, fused parts or gaps): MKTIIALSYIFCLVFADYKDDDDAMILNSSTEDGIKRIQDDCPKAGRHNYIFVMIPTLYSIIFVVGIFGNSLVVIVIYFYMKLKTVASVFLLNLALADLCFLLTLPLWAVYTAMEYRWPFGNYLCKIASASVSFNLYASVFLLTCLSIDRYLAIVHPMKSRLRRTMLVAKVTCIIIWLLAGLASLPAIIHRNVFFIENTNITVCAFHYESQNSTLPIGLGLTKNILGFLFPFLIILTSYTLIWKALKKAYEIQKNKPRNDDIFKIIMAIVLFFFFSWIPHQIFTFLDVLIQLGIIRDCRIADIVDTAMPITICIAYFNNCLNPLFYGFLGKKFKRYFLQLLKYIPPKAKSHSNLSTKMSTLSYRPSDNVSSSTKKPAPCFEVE
Method: as §1
Data Analysis. Estimation of the t1/2 and the EC50 values for ligand-mediated endocytosis were calculated using the GraphPad® Prism curve fitting program The curves presented throughout this study, representing the best fits, and were generated using this GraphPad® Prism program as well.

[3] = 100 nM Ubo, 30 min pre-incubation

Compound: C=C1C(=O)N[C@@H](C)C(=O)N(C)[C@@H](C)C(=O)N[C@@H]([C@H](OC(=O)[C@@H](NC(=O)CC)[C@H](O)C(C)C)C(C)C)C(=O)N(C)[C@@H]([C@@H](C)OC)C(=O)O[C@H](C(C)C)[C@H](NC(C)=O)C(=O)O[C@H](Cc2ccccc2)C(=O)N1C [Ubo-QIC] (Ac-[X1][dPhLac][NMeDha]A[NMeA][X1](Leu(3R-OH,Nα-propionyl))[NMeT](Me); ester 1-C)
- effect on AngII-mediated BRET increase (Rho sensor) (AT1R [1]; 100 nM Ubo, 100 nM AngII 70 s): partially blocked
- effect on DVG- and SI-mediated accumulation of receptors in endosomes (AT1R [2]; [3]): had no effect
- reduction of targeting of AngII-bound AT1R to Rab5 containing endosomes (AT1R [2]; [3]): more than 25%

Compound: DRVYVHPG [DVG, [Asp^1,Val^5, Gly^8]-AngII]
- impact of Gq inhibition on ligand-mediated Rho activation (AT1R [1]; 100 nM Ubo-Qic 30 min, ligand 4 min): did not affect
- time to maximal AT1R internalization into endosomes (AT1R [2]; 100 nM SI or 1 μM DVG): 10 min
- less efficacious than AngII at promoting AT1R concentration in early endosomes (AT1R [2]; 100 nM SI or 1 μM DVG vs 100 nM AngII): 40%
- receptor accumulation in endosomes, compared to AngII (AT1R [2]; 40 min): promoted less receptor accumulation in endosomes

— US10584159B2, “Renilla based biosensors for monitoring biomolecule localization and trafficking in cells” (The Royal Institution for the Advancement of …, priority 2014, dated 2020)
